# Assays:
# [1] = Inhibition of [125I]L-T3 binding to rat hepatic 3,5,3''-triiodo-L-thyronine receptor
# Rattus norvegicus [2] = test: Atrial tension was determined after administration to rats at 25 mg/kg for 7 days at 40 pulse/min
# Rattus norvegicus [3] = test: Heart weight was determined after administration to rats at 25 mg/kg perorally for 7 days (in vivo on cardiovascular activity)
# Rattus norvegicus [4] = test: Atrial tension was determined after administration to rats at 25 mg/kg for 7 days at 20 pulse/min
# Rattus norvegicus [5] = test: Heart rate was determined after administration to rats at 25 mg/kg perorally for 7 days (in vivo on cardiovascular activity)
# Rattus norvegicus [6] = test: Atrial tension was determined after administration to rats at 100 ug/Kg for 7 days at 20 pulse/min; type: functional, Cardiac atrium
# Rattus norvegicus [7] = test: Atrial tension was determined after administration to rats at 100 ug/Kg for 7 days at 40 pulse/min; type: functional, Cardiac atrium
# Rattus norvegicus [8] = test: Heart weight was determined after administration to rats at 100 ug/Kg perorally for 7 days (in vivo on cardiovascular activity); type: functional
# Rattus norvegicus [9] = test: Heart rate was determined after administration to rats at 100 ug/Kg perorally for 7 days (in vivo on cardiovascular activity); type: functional
SMILES,IC50 [1],further results
Cc1cc(NC(=O)C(=O)O)cc(C)c1S(=O)(=O)c1ccc(O)c(C2CCCCC2)c1,1.9 nM,–
Cc1cc(NC(=O)C(=O)O)cc(C)c1Oc1ccc(O)c(-c2cccc(F)c2)c1,1.9 nM,–
Cc1cc(NC(=O)C(=O)O)cc(C)c1Oc1ccc(O)c(-c2ccc(C(F)(F)F)cc2)c1,14 nM,–
Cc1cc(NC(=O)C(=O)O)cc(C)c1Oc1ccc(O)c(-c2ccccc2Cl)c1,0.17 nM,–
Cc1cc(NC(=O)C(=O)O)cc(C)c1Oc1ccc(O)c(-c2cccc(Cl)c2)c1,0.64 nM,–
Cc1cc(NC(=O)C(=O)O)cc(C)c1Sc1ccc(O)c(C2CCCCC2)c1,2 nM,–
Cc1cc(NC(=O)C(=O)O)cc(C)c1Oc1cccc(-c2ccccc2)c1,32 nM,–
Cc1cc(NC(=O)C(=O)O)cc(C)c1Oc1ccc(O)c(-c2cccc(C(F)(F)F)c2)c1,0.92 nM,–
Cc1cc(NC(=O)C(=O)O)cc(C)c1Oc1ccc(O)c(C2CCCCC2)c1,2.2 nM,Developed tension (Rattus norvegicus [2]): 12.6%; Heart weight (Rattus norvegicus [3]): 4.4; Developed tension (Rattus norvegicus [4]): 7.6%; Heart rate (Rattus norvegicus [5]): 6.3
N[C@@H](Cc1cc(I)c(Oc2ccc(O)c(I)c2)c(I)c1)C(=O)O [LIOTHYRONINE],–,Developed tension (Rattus norvegicus [6]): 18.2%; Developed tension (Rattus norvegicus [7]): 12.7%; Heart weight (Rattus norvegicus [8]): 38.9; Heart rate (Rattus norvegicus [9]): 52.5
Cc1cc(Oc2c(C)cc(NC(=O)C(=O)O)cc2C)ccc1O,5.4 nM,–
CCc1cc(Oc2c(C)cc(NC(=O)C(=O)O)cc2C)ccc1O,0.25 nM,–
Cc1cc(NC(=O)C(=O)O)cc(C)c1Oc1ccc(O)c(-c2ccccc2)c1,1.9 nM,Developed tension (Rattus norvegicus [4]): 3.7%
Cc1ccc(-c2cc(Oc3c(C)cc(NC(=O)C(=O)O)cc3C)ccc2O)cc1,9 nM,–

# Source: ChEMBL document CHEMBL1133248, “Synthesis and biological activity of phenoxyphenyl oxamic acid derivatives related to L-thyronine” (Bioorg Med Chem Lett, 2000)
